Measurements published in US20030147899A1, “Endogenous hormone adjuvant and uses thereof” (priority 1999, published 2003).
“Also recorded” adds a separate entry of the source.

How the values were obtained:
[1] = system: lymphocytes in cervical lymph nodes; assay: Cellularity of cervical lymph nodes draining the site of the skin DTH reaction; format: in vivo, rat; conditions: ADX animals, epinephrine 0.5 mg/kg, corticosterone 5 mg/kg, or both, OXA challenge 2 h after administration, 48 h after antigen exposure
Protocol: Animals were rapidly sacrificed and cervical lymph nodes were dissected and placed in sterile PBS on ice (n=3 per treatment group). Each lymph node was subsequently weighed and disrupted between the frosted ends of two microscope slides. Suspensions of leukocytes were prepared in PBS and stored on ice for cell counting, immunofluorescent staining, and flow cytometry. White blood cell counts and lymphocyte-neutrophil differentials were obtained on a hematology analyzer (F800, Sysmex, McGraw Park, Ill.). Specific leukocyte subtypes were measured by immunofluorescent antibody staining and subsequent analysis using three color flow cytometry (FACScan, Becton Dickinson, San Jose, Calif.). T cells were identified using the following monoclonal antibodies (Caltag, Burlingame, Calif.): CD3-FITC (1F4), CD4-PE (w3/25), CD8-TC (OX8). Briefly, cell suspensions were incubated with antibody for 20 min at room temperature, washed with PBS, and read on the FACScan with 3,000 to 5,000 events being acquired from each preparation. Appropriate isotype controls were used to set the negative criteria. Data were analyzed using Cell Quest software (Becton Dickinson, San Jose, Calif.). For all experiments, repeated measures were made on each animal. Significant differences between timepoints within a specific leukocyte subpopulation were analyzed using the Student's t-test as a test for significant differences between means. […] Data are expressed as mean ±SEM in all figures. A computer statistics package was used for statistical analyses (SYSTAT v5.2.1, Systat Inc., Evanston, Ill.).

[2] = system: skin DTH, DNFB challenge (pinna thickness); assay: Skin DTH response, hormones given before DNFB challenge of previously sensitized animals; format: in vivo, rat
Protocol: (§1) Young adult, male Sprague Dawley rats (150-300 g) (Harlan Sprague Dawley, Indianapolis, Ind.) were housed in plastic cages in the accredited (American Association of Accreditation of Laboratory Animal Care) animal facilities of The Rockefeller University (New York, N.Y.). The animal room was maintained on a 12 h light-dark cycle (lights on 7 am). Animals were given rat chow and water ad libitum.
(§2) Bilateral adrenalectomy (ADX) was performed using standard aseptic surgical techniques on animals fully anesthetized with the inhalant, methoxyflurane (Metofane; Pitman-Moore, Washington Crossing, N.J.). Sham adrenalectomized (SHAM) animals went through exactly the same procedure as ADX animals except that their adrenals were not removed. ADX animals were maintained on a low normalizing dose of corticosterone (20 μg/ml) administered through drinking choice of water or 3% saline. This was necessary for restoring important permissive functions of corticosterone which are lost following ADX (18-20). […] Unlike constant replacement (via pellets or osmotic pumps), drinking water corticosterone also facilitates the normal termination of a stress-induced ACTH response (22, 23), and simulates the circadian corticosterone rhythm as animals drink at the beginning of the active period (16).
The concentration and timing of each hormone administered is listed in the text and 3 0 figures. […] Epinephrine (Research Biochemicals International) was dissolved in sterile water.
DTH was induced by challenging the pinnae of previously sensitized rats with 2,4-dinitro-1-fluorobenzene (DNFB, Sigma, St. Louis, Mo.) or oxazalone (OXA, Sigma, St. Louis, Mo). On day 1 of sensitization, animals were anesthetized with the inhalant, methoxyflurane (Metofane; Pitman-Moore, Washington Crossing, N.J.). No anesthesia was used subsequently. An area of approximately 3×4 cm was shaved on the dorsum. The thickness of both pinnae was recorded using a constant-loading dial micrometer (Mitutoyo, Japan). On days 1 and 2 of sensitization, one hundred microliters of DNFB (1% (w/v) in 4:1, acetone:olive oil) or one hundred microliters of OXA (1.5% (w/v) in ethanol) were applied to the shaved dorsum. On day 5, baseline pinna thickness was measured. On day 6, after stress or hormone administration, the dorsal surface of the right pinnae of all animals was challenged with 50 μl of DNFB (0.5% in 4:1 acetone:olive oil) or OXA (0.75% in ethanol). Left pinnae were treated with vehicle. Pinna thickness was measured at the times shown. Measurements were made (on same relative region of pinna) gently and rapidly to avoid displacing or compressing edema fluid and changing pinna thickness.
The immune reaction induced using the above procedure, is characterized by swelling at the site of challenge, and by an infiltration of monocytes/macrophages and lymphocytes into the epidermis and dermis (29-31). A positive correlation between the intensity of the immune reaction and the increase in pinna thickness has been reported (32, 33). This model for skin DTH reactions has been widely used to monitor cell-mediated immune responses in vivo (30, 34).
For all experiments, repeated measures were made on each animal. Significant differences between timepoints within a specific leukocyte subpopulation were analyzed using the Student's t-test as a test for significant differences between means. […] Data are expressed as mean ±SEM in all figures. A computer statistics package was used for statistical analyses (SYSTAT v5.2.1, Systat Inc., Evanston, Ill.).

[3] = system: DTH reaction mounted against OXA (pinna thickness); assay: Skin DTH response to OXA challenge, hormones given at sensitization (immunization) phase; format: in vivo, rat; conditions: hormone ip 2 h before sensitization with 1.5% OXA: epinephrine 0.5 mg/kg, corticosterone 5 mg/kg, or both; OXA ear challenge six days after immunization
Protocol: as §1
This was necessary for restoring important permissive functions of corticosterone which are lost following ADX (18-20). […] Unlike constant replacement (via pellets or osmotic pumps), drinking water corticosterone also facilitates the normal termination of a stress-induced ACTH response (22, 23), and simulates the circadian corticosterone rhythm as animals drink at the beginning of the active period (16).
No anesthesia was used subsequently. An area of approximately 3×4 cm was shaved on the dorsum. The thickness of both pinnae was recorded using a constant-loading dial micrometer (Mitutoyo, Japan).
On day 5, baseline pinna thickness was measured. […] Left pinnae were treated with vehicle.
The immune reaction induced using the above procedure, is characterized by swelling at the site of challenge, and by an infiltration of monocytes/macrophages and lymphocytes into the epidermis and dermis (29-31). […]

[4] = system: skin DTH, OXA challenge (pinna thickness); assay: Skin DTH response, hormones given before OXA challenge of previously sensitized ADX animals; format: in vivo, rat; conditions: for skin DTH vs vehicle: epinephrine 0.5 mg/kg, corticosterone 5 mg/kg, or both, OXA (0.75%) challenge 2 h after hormone administration
Protocol: as §1, §2
The concentration and timing of each hormone administered is listed in the text and 3 0 figures. […]
DTH was induced by challenging the pinnae of previously sensitized rats with 2,4-dinitro-1-fluorobenzene (DNFB, Sigma, St. Louis, Mo.) or oxazalone (OXA, Sigma, St. Louis, Mo). […] The thickness of both pinnae was recorded using a constant-loading dial micrometer (Mitutoyo, Japan). […] On day 5, baseline pinna thickness was measured. […] Pinna thickness was measured at the times shown. […]
For all experiments, repeated measures were made on each animal. Significant differences between timepoints within a specific leukocyte subpopulation were analyzed using the Student's t-test as a test for significant differences between means. […] Data are expressed as mean ±SEM in all figures. […]

[5] = target: T1, corticosteroid binding globulin (Homo sapiens, UniProt P08185); conditions: plasma protein; cited from earlier work
T1 sequence (P08185 23-405): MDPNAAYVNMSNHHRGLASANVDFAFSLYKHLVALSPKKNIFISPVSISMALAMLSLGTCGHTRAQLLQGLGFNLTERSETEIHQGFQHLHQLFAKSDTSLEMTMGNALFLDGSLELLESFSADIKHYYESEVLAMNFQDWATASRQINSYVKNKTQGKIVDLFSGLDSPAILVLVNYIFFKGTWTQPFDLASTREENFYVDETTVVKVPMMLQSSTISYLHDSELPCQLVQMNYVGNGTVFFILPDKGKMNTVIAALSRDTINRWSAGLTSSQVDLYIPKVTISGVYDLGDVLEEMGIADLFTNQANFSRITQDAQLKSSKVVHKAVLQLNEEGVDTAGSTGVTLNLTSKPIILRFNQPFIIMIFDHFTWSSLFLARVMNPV

Structure (SMILES)	lymphocyte numbers in cervical lymph nodes vs vehicle [1]	skin DTH vs vehicle ([2]; corticosterone 400 μg/ml in drinking water, chronic (6 days), DNFB challenge)	skin DTH vs vehicle ([2]; corticosterone 400 μg/ml in drinking water, chronic (6 days), DNFB challenge, listed as Corticosterone)	skin DTH vs vehicle ([2]; corticosterone 5 mg/kg ip, acute, ADX animals, DNFB challenge two hours after administration)	skin DTH vs vehicle ([2]; corticosterone 5 mg/kg ip, acute, ADX animals, DNFB challenge two hours after administration, listed as Corticosterone)	skin DTH vs vehicle ([2]; corticosterone 100 or 400 μg/ml in drinking water for four hours (acute), adrenal-intact animals, DNFB challenge)	skin DTH vs vehicle ([2]; corticosterone 100 or 400 μg/ml in drinking water for four hours (acute), adrenal-intact animals, DNFB challenge, listed as Corticosterone)	skin DTH vs vehicle ([2]; corticosterone high dose 40 mg/kg, acute, ADX animals, DNFB challenge)	skin DTH vs vehicle ([2]; corticosterone high dose 40 mg/kg, acute, ADX animals, DNFB challenge, listed as Corticosterone)	DTH response (immune reaction at challenge or recall phase) vs vehicle [3]	immuno-enhancement of skin DTH compared with epinephrine ([4]; corticosterone 5 mg/kg vs epinephrine 500 μg/kg, OXA challenge 2 h after administration)	skin DTH vs vehicle [4]	binding to corticosteroid binding globulin [5]	lymphocyte numbers in cervical lymph nodes vs vehicle ([1]; listed as Epinephrine)	skin DTH vs vehicle ([2]; epinephrine 0.05, 0.25, 0.5 mg/kg, acute, ADX animals, DNFB challenge two hours after administration)	skin DTH vs vehicle ([2]; epinephrine 0.05, 0.25, 0.5 mg/kg, acute, ADX animals, DNFB challenge two hours after administration, listed as Epinephrine)
C[C@]12C[C@H](O)[C@H]3[C@@H](CCC4=CC(=O)CC[C@@]43C)[C@@H]1CC[C@@H]2C(=O)CO [corticosterone]	significantly larger numbers of lymphocytes in cervical lymph nodes; also recorded: higher lymphocyte numbers in cervical lymph nodes	significantly suppressed skin DTH	lower DTH responses than control animals	significant enhancement of skin DTH	significantly larger DTH response than vehicle treated animals	significant enhancement of skin DTH; also recorded: enhanced the DTH response	significantly larger DTH response than vehicle treated animals	significantly suppressed skin DTH	lower DTH responses than control animals	enhance the immune reaction observed during the challenge or recall phase of DTH	greater than that induced by epinephrine	enhanced skin DTH; also recorded: enhanced DTH response	binds a large proportion of circulating corticosterone	–	–	–
CNC[C@H](O)c1ccc(O)c(O)c1 [epinephrine, reference compound]	significantly larger numbers of lymphocytes in cervical lymph nodes	–	–	–	–	–	–	–	–	enhance the immune reaction observed during the challenge or recall phase of DTH	–	enhanced skin DTH; also recorded: enhanced DTH response	–	higher lymphocyte numbers in cervical lymph nodes	significant dose-dependent enhancement of skin DTH	dose dependent increase in skin DTH
